# Calls of active or inactive are those of the source. No cut-off for these calls is given here.
# Tests used:
# [1] = Toxicity against human MIA PaCa-2 cells in nutrient-rich medium (DMEM); assay type: cell-based
# MIA PaCa-2 [2] = test: Preferential cytotoxicity against human MIA PaCa-2 cells in nutrient-deprived medium; assay type: functional
# MIA PaCa-2 [3] = test: […] in human MIA PaCa-2 cells assessed as membrane blebbing , cell rupture and leakage of intracellular components into the medium at 20 uM incubated for 24 hrs in nutrient-deprived medium by Hoechst 33342 staining based assay"; assay type: functional
# [4] = Effect on total AKt protein level in human MIA PaCa-2 cells at 10 to 20 uM incubated for 6 hrs in nutrient-deprived medium by Western blot analysis; assay type: toxicity, cell-based; settings: mia paca-2, 6 h, dose 10-20 µM
# MIA PaCa-2 [5] = test: Induction of apoptosis in human MIA PaCa-2 cells assessed as down regulation of Bcl2 expression at 10 to 20 uM incubated for 24 hrs in nutrient-deprived medium by Western blot analysis; assay type: functional, cell-based; settings: dose 10-20 µM
# MIA PaCa-2 [6] = test: Down regulation of autophagy marker expression in human MIA PaCa-2 cells assessed as reduction in Atg5 expression at 10 to 20 uM in nutrient-deprived medium by Western blot analysis; assay type: functional, cell-based; settings: dose 10-20 µM
# MIA PaCa-2 [7] = test: Induction of apoptosis in human MIA PaCa-2 cells assessed as down regulation of caspase-3 expression at 10 to 20 uM incubated for 24 hrs in nutrient-deprived medium by Western blot analysis; assay type: functional, cell-based; settings: dose 10-20 µM
# MIA PaCa-2 [8] = test: Induction of apoptosis in human MIA PaCa-2 cells assessed as down regulation of Bcl-xL expression at 10 to 20 uM incubated for 24 hrs in nutrient-deprived medium by Western blot analysis; assay type: functional, cell-based; settings: dose 10-20 µM
# MIA PaCa-2 [9] = test: Down regulation of autophagy marker expression in human MIA PaCa-2 cells assessed as reduction in Atg12 expression at 10 to 20 uM in nutrient-deprived medium by Western blot analysis; assay type: functional, cell-based; settings: dose 10-20 µM
# MIA PaCa-2 [10] = test: Induction of cell death in human MIA PaCa-2 cells assessed as rounding of cells and membrane rupture at 5 uM incubated for 24 hrs in nutrient-deprived medium by ethidium bromide-acridine orange double staining based EVOS FL digital microscopy"; assay type: functional
# [11] = Effect on total mTOR protein level in human MIA PaCa-2 cells at 10 to 20 uM incubated for 6 hrs in nutrient-deprived medium by Western blot analysis; assay type: toxicity, cell-based; settings: mia paca-2, 6 h, dose 10-20 µM
# MIA PaCa-2 [12] = test: Down regulation of autophagy marker expression in human MIA PaCa-2 cells assessed as reduction in LC3-I expression at 10 to 20 uM in nutrient-deprived medium by Western blot analysis; assay type: functional, cell-based; settings: dose 10-20 µM
# [13] = biological target: Serine/threonine-protein kinase mTOR (Homo sapiens) (UniProt P42345); test: Inhibition of mTOR S2481 phosphorylation in human MIA PaCa-2 cells at 10 to 20 uM incubated for 6 hrs in nutrient-deprived medium by Western blot analysis; assay type: cell-based; settings: dose 10-20 µM
# MIA PaCa-2 [14] = test: Inhibition of AKT S473 phosphorylation in human MIA PaCa-2 cells at 10 to 20 uM incubated for 6 hrs in nutrient-deprived medium by Western blot analysis; assay type: cell-based; settings: dose 10-20 µM
# MIA PaCa-2 [15] = test: Inhibition of cell migration of human MIA PaCa-2 cells assessed as open area level at 20 uM incubated for 48 hrs in nutrient-deprived medium by quantitative real-time cancer cell migration assay (reference value: 8.9%); assay type: functional; set-up: scale not given: the % may be the effect or the level left
# MIA PaCa-2 [16] = test: Down regulation of autophagy marker expression in human MIA PaCa-2 cells assessed as reduction in LC3-II expression at 10 to 20 uM in nutrient-deprived medium by Western blot analysis; assay type: functional, cell-based; settings: dose 10-20 µM
# MIA PaCa-2 [17] = test: Inhibition of cell migration of human MIA PaCa-2 cells assessed as open area level at 20 uM incubated for 24 hrs in nutrient-deprived medium by quantitative real-time cancer cell migration assay (reference value: 100%); assay type: functional; set-up: scale not given: the % may be the effect or the level left
# MIA PaCa-2 [18] = test: Down regulation of autophagy marker expression in human MIA PaCa-2 cells assessed as reduction in Atg7 expression at 10 to 20 uM in nutrient-deprived medium by Western blot analysis; assay type: functional, cell-based; settings: dose 10-20 µM
# MIA PaCa-2 [19] = test: Induction of cellular morphology changes in human MIA PaCa-2 cells assessed as rounding of cells and membrane rupture at 6.25 to 10 uM incubated for 24 hrs in nutrient-deprived medium by ethidium bromide-acridine orange double staining based EVOS FL digital microscopy"; assay type: functional, cell-based; settings: dose 6.25-10 µM, DDE = dose-dependent effect
Structure (SMILES),Activity [1],PC50 (MIA PaCa-2 [2]) [µM],other results
C[C@]12CCC[C@@](C)(C(=O)O)[C@@H]1CCC1=CC(=O)CC[C@@H]12,Non-Toxic,55.5,
CC(C)[C@]1(O)C=C2C(=O)C[C@@H]3[C@](C)(CCC[C@@]3(C)C(=O)O)[C@H]2CC1,Non-Toxic,>100,
C=C/C(C)=C\C[C@@H]1[C@@]2(C)CCCC(C)(C)[C@@H]2CC(=O)[C@@]1(C)O,Non-Toxic,15.2,
CC(C)[C@@]1(O)C=C2C(=O)C[C@@H]3[C@](C)(CCC[C@@]3(C)C(=O)O)[C@H]2CC1,Non-Toxic,70.7,
CC(C)[C@@]1(O)C=C2C(=O)C[C@H]3[C@](C)(COC(=O)CCC(=O)O)CCC[C@]3(C)[C@H]2CC1,Non-Toxic,82.9,
C[C@@]1(CO)CCC[C@]2(C)[C@H]3CCC(=O)C=C3CC[C@@H]12,Non-Toxic,35.8,
CC(C)C1=CC[C@H]2C(=C1)C(=O)C[C@@H]1[C@]2(C)CCC[C@@]1(C)C(=O)O [ABIESADINE E],Non-Toxic,42.3,
COc1cc(C[C@H]2C(=O)OC[C@@H]2Cc2ccc(OC)c(OC)c2)ccc1O [ARCTIGENIN],Non-Toxic,0.7,
CC(C)c1ccc2c(c1)CC[C@H]1[C@](C)(C(=O)O)CCC[C@]21C [DEHYDROABIETIC ACID],Non-Toxic,16.9,
CC(C)c1ccc2c(c1)CC[C@H]1[C@](C)(CO)CCC[C@]21C [POMIFERIN A],Non-Toxic,6.6,Activity (MIA PaCa-2 [3]): Active; Activity [4]: Non-Toxic; Activity (MIA PaCa-2 [5]): Active; Activity (MIA PaCa-2 [6]): Active; Activity (MIA PaCa-2 [7]): Active; Activity (MIA PaCa-2 [8]): Active; Activity (MIA PaCa-2 [9]): Active; Activity (MIA PaCa-2 [10]): 100%; Activity [11]: Non-Toxic; Activity (MIA PaCa-2 [12]): Active; inhibition [13]: Active; inhibition (MIA PaCa-2 [14]): Active; Activity (MIA PaCa-2 [15]): 30.8%; Activity (MIA PaCa-2 [16]): Active; Activity (MIA PaCa-2 [17]): 64%; Activity (MIA PaCa-2 [18]): Active; Activity (MIA PaCa-2 [19]): Dde

# From ChEMBL document CHEMBL5120816, “Abietane diterpenes from Abies spectabilis and their anti-pancreatic cancer activity against the MIA PaCa-2 cell line” (Bioorg Med Chem Lett, 2022)
